From ChEMBL document CHEMBL1152118, “Synthesis and pharmacological profile of two novel heterocyclic chromanols, CP-80,798 and CP-85,958, as potent LTD4 receptor antagonists” (Bioorg Med Chem Lett, 1995) come the findings set out here.

By IC50 is commonly meant the concentration that inhibits the measured activity by half. As usually defined, the ED50 is the midpoint of the dose-response relation. Read a high ED50 as a need for a large dose. The term Ki denotes a measure of affinity in units of concentration, obtained from inhibition or displacement. A high value points to a looser hold on the target.

Assay [1] addresses T1, Polyunsaturated fatty acid 5-lipoxygenase (Rattus norvegicus, UniProt P12527).
T1 sequence (P12527 whole entry): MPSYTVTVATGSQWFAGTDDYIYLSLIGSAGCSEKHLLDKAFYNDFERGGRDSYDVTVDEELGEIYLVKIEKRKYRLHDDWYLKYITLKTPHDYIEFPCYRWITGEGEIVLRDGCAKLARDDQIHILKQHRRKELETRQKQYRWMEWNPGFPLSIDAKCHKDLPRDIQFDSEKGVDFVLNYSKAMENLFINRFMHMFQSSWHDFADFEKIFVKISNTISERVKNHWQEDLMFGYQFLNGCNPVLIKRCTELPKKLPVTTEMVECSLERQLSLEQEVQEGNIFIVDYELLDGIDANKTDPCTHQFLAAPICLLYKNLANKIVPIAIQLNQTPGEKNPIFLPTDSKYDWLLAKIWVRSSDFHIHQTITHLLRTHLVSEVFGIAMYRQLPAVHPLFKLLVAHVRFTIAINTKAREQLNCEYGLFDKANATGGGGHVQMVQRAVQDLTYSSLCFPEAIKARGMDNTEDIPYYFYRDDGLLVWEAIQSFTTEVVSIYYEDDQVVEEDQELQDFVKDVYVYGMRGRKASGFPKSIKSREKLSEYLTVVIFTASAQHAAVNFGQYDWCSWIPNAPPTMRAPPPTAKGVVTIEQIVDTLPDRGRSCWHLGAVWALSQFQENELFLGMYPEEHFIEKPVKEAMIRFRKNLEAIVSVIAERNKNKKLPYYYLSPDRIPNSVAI
Description: Inhibition of 5-Lipoxygenase (5-LO) in rat basophilic leukemia cells. It counts as cell-based, RBL-1.

For assay [2], the system named is Cavia porcellus. Kind of assay: Inhibitory activity against LTD4 challenged pulmonary function test by oral administration. It counts as functional.
Assay [3] relates to Cavia porcellus. Description: Inhibitory activity against LTD4 challenged pulmonary function test by oral administration (2 hr preantigen). Format: functional.
Assay [4] relates to Cavia porcellus. Description: Dose required to block the airway obstruction induced by aerosolized antigen by oral administration. It counts as functional.
Assay [5] deals with T2, Cysteinyl leukotriene receptor 1 (Cavia porcellus, UniProt Q2NNR5).
T2 sequence (Q2NNR5 whole entry): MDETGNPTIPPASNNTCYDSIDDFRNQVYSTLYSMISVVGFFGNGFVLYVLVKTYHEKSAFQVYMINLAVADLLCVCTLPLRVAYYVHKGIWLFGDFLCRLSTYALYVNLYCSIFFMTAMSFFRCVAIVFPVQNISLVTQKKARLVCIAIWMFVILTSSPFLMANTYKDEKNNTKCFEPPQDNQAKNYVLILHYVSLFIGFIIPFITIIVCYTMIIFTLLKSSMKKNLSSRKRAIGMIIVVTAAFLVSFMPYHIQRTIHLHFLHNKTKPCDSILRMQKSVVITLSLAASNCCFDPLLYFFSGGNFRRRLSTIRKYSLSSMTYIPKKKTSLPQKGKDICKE
Kind of assay: Inhibition of [3H]LTD4 binding to LTD4 receptor in guinea pig lung membranes. It counts as cell membranes, Membrane.

Consider `O[C@@H]1c2cc(OCc3ccc4ccccc4n3)ccc2OC[C@@H]1Cc1cccnc1`, for which the concentration for half-maximal inhibition (IC50) in assay [1] was 1.9 µM. In addition, the 50% effective dose (ED50) with Cavia porcellus [2] was determined as 3 mg/kg; with Cavia porcellus [3] it was 20 mg/kg; in the assay on Cavia porcellus [4] it was 16 mg/kg. Moreover, in assay [5], the Ki was 0.65 µM.
Regarding `O[C@@H]1c2cc(OCc3ccc4ccccc4n3)ccc2CC[C@H]1Cc1ccccc1`, affinity in assay [5] was put at a Ki of 1.5 µM.
In assay [5], `CCCCC1CCc2ccc(OCc3ccc4ccccc4n3)cc2C1O` (stereo not drawn) returned a Ki of 6.8 µM.
Turning to `O=C(O)c1cccc(C[C@@H]2COc3ccc(OCc4nc5cc(F)ccc5s4)cc3[C@@H]2O)c1`, the 50% inhibitory concentration (IC50) in assay [1] came out at 8.1 µM. The figures for the median effective dose (ED50) with Cavia porcellus [2], with Cavia porcellus [3] and in the assay with Cavia porcellus [4] were 0.49 mg/kg, 0.43 mg/kg and 10.8 mg/kg, respectively. In addition, in assay [5], the affinity corresponds to a Ki of 24 µM.
Take `CCCCCC(O)c1cccc(OCc2ccc3ccccc3n2)c1` (stereo not drawn) [REV-5901]: in assay [5], the Ki amounted to 8 µM. This counts as single-digit micromolar.
